Bounds are passed on as bounds.

For this test, the target named is T1, human DP2 receptor (Homo sapiens, UniProt Q9Y5Y4).
T1 construct: expressed in transfected cells
T1 sequence (Q9Y5Y4 1-395): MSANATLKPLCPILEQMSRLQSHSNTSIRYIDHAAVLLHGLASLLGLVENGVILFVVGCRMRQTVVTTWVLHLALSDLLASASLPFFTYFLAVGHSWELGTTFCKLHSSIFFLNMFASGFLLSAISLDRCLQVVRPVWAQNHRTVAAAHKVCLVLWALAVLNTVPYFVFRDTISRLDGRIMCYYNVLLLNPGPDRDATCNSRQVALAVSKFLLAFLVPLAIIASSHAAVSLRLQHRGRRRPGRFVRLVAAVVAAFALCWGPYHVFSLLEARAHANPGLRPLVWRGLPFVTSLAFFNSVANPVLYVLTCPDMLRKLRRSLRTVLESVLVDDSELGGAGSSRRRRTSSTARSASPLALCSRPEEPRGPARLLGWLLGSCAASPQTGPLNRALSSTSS
Description: DP2/CRTH2 binding assay ([3H]PGD2 radioligand). Conditions: membranes of HEK293 cells expressing recombinant human DP2, 1 nM [3H]PGD2; read-out: hDP2. The method, then: The ability of a compound to bind to the human DP2 receptor is assessed via a radioligand binding assay using [^3H]PGD2. HEK293 cells stably expressing recombinant human DP2 are resuspended in 10 mM Hepes, 7.4 containing 1 mM DTT, lysed and centrifuged at 75,000×g to pellet the membranes. The membranes are resuspended in 10 mM Hepes, 7.4 containing 1 mM DTT and 10% glycerol to approximately 5 mg protein/ml. Membranes (2-10 μg protein/well) are incubated in 96-well plates with 1 nM [^3H]PGD2 and test compound in Assay Buffer (50 mM Hepes, 10 mM MnCl2, 1 mM EDTA, plus or minus 0.2% human serum albumin, pH 7.4) for 60 minutes at room temperature. The reactions are terminated by rapid filtration through Whatman GF/C glass fibre filter plates. The filter plates were pre-soaked in 0.33% polythylenimine for 30 minutes at room temperature then washed in Wash Buffer (50 mM Hepes, 0.5 M NaCl pH 7.4) prior to harvesting. After harvesting, the filter plates are washed 3 times with 1 ml cold Wash Buffer then dried. Scintillant is then added to the plates and the radioactivity retained on the filters is determined on a Packard TopCount (Perkin Elmer). Specific binding is determined as total radioactive binding minus non-specific binding in the presence of 10 μM PGD2. IC50s were determined using GraphPad prism analysis of drug titration curves.

As to `COc1ccc(CC(=O)O)cc1Oc1ccc(NC(=O)NCc2ccccc2)cc1CSCC(F)(F)F` [Compound 3, {3-[4-(3-benzyl-ureido)-2-(2,2,2-trifluoro-ethylsulfanylmethyl)-phenoxy]-4-methoxy-phenyl}-acetic acid], the IC50 is < 300 nM. On to `COc1ccc(CC(=O)O)cc1Oc1ccc(NC(=O)c2ccc(Cl)cc2)cc1CSc1ccc(Cl)cc1` [Compound 4, {3-[4-(4-Chloro-benzoylamino)-2-(4-chloro-phenylsulfanylmethyl)-phenoxy]-4-methoxy-phenyl}-acetic acid], for which the IC50 is < 300 nM. With `COc1ccc(CC(=O)O)cc1Oc1ccc(NC(=O)C(C)(C)C)cc1CSc1ccc(Cl)cc1` [Compound 5, {3-[2-(4-chloro-phenylsulfanylmethyl)-4-(2,2-dimethyl-propionylamino)-phenoxy]-4-methoxy-phenyl}-acetic acid] the figure was < 300 nM; with `COc1ccc(CC(=O)O)cc1Oc1ccc(NC(=O)NCc2ccccc2)cc1CSc1ccc(Cl)cc1` [Compound 6, {3-[4-(3-benzyl-ureido)-2-(4-chloro-phenylsulfanylmethyl)-phenoxy]-4-methoxy-phenyl}-acetic acid], < 300 nM; with `COc1ccc(CC(=O)O)cc1Oc1ccc(NC(=O)c2ccc(Cl)cc2)cc1CSC(C)(C)C` [Compound 8, {3-[2-tert-butylsulfanylmethyl-4-(4-chloro-benzoylamino)-phenoxy]-4-methoxy-phenyl}-acetic acid], < 300 nM. With `COc1ccc(CC(=O)O)cc1Oc1ccc(NC(=O)C(C)(C)C)cc1CSC(C)C` [Compound 9, {3-[4-(2,2-Dimethyl-propionylamino)-2-isopropylsulfanylmethyl-phenoxy]-4-methoxy-phenyl}-acetic acid], the IC50 was < 300 nM. Take `COc1ccc(CC(=O)O)cc1Oc1ccc(NC(=O)C(C)(C)C)cc1CS(=O)(=O)C(C)C` [Compound 10, {3-[4-(2,2-Dimethyl-propionylamino)-2-(propane-2-sulfonylmethyl)-phenoxy]-4-methoxy-phenyl}-acetic acid]: the IC50 was < 300 nM. As to `COc1ccc(CC(=O)O)cc1Oc1ccc(NC(=O)C(C)(C)C)cc1C[S+]([O-])C(C)C` (stereo not shown) [Compound 11, {3-[4-(2,2-Dimethyl-propionylamino)-2-(propane-2-sulfinylmethyl)-phenoxy]-4-methoxy-phenyl}-acetic acid], the IC50 was < 300 nM.

In the case of `COc1ccc(CC(=O)O)cc1Oc1ccc(NC(=O)C(C)(C)C)cc1CS(=O)(=O)CC(F)(F)F` [Compound 12, {3-[4-(2,2-Dimethyl-propionylamino)-2-(trifluoro-ethanesulfonylmethyl)-phenoxy]-4-methoxy-phenyl}-acetic acid], the IC50 was < 300 nM. In the case of `COc1ccc(CC(=O)O)cc1Oc1ccc(NC(=O)NCc2ccccc2)cc1CSC(C)(C)C` [Compound 13, {3-[4-(3-benzyl-ureido)-2-tert-butylsulfanylmethyl-phenoxy]-4-methoxy-phenyl}-acetic acid], the IC50 is < 300 nM.

`COc1ccc(CC(=O)O)cc1Oc1ccc(NC(=O)C2CC2)cc1CSCC(F)(F)F` [Compound 14, {3-[4-(Cyclopropanecarbonyl-amino)-2-(2,2,2-trifluoro-ethylsulfanylmethyl)-phenoxy]-4-methoxy-phenyl}-acetic acid]: the IC50 was < 300 nM. `COc1ccc(CC(=O)O)cc1Oc1ccc(NC(=O)C(C)C)cc1CSCC(F)(F)F` [Compound 15, {3-[4-isobutyrylamino-2-(2,2,2-trifluoro-ethylsulfanylmethyl)-phenoxy]-4-methoxy-phenyl}-acetic acid]: the IC50 was < 300 nM. Consider `COc1ccc(CC(=O)O)cc1Oc1ccc(NC(=O)CC(C)(C)C)cc1CSCC(F)(F)F` [Compound 16, {3-[4-(3,3-Dimethyl-butyrylamino)-2-(2,2,2-trifluoro-ethylsulfanylmethyl)-phenoxy]-4-methoxy-phenyl}-acetic acid], for which the IC50 is < 300 nM. On to `COc1ccc(CC(=O)O)cc1Oc1ccc(NC(=O)c2ccc(Cl)cc2)cc1CSC(C)C` [Compound 20, {3-[4-(4-Chloro-benzoylamino)-2-isopropylsulfanylmethyl-phenoxy]-4-methoxy-phenyl}-acetic acid], for which the IC50 was < 300 nM. On to `COc1ccc(CC(=O)O)cc1Oc1ccc(NC(=O)c2ccc(Cl)cc2)cc1C[S+]([O-])C(C)C` (stereo not shown) [Compound 21, {3-[4-(4-Chloro-benzoylamino)-2-(propane-2-sulfinylmethyl)-phenoxy]-4-methoxy-phenyl}-acetic acid], for which the IC50 was < 300 nM. `COc1ccc(CC(=O)O)cc1Oc1ccc(NC(=O)c2ccc(Cl)cc2)cc1CS(=O)(=O)C(C)C` [Compound 22, {3-[4-(4-Chloro-benzoylamino)-2-(propane-2-sulfonylmethyl)-phenoxy]-4-methoxy-phenyl}-acetic acid]: the IC50 is < 300 nM. For `COc1ccc(CC(=O)O)cc1Oc1ccc(NC(=O)c2ccc(Cl)cc2)cc1C[S+]([O-])c1ccccc1` (stereo not shown) [Compound 23, {3-[2-Benzenesulfinylmethyl-4-(4-chloro-benzoylamino)-phenoxy]-4-methoxy-phenyl}-acetic acid], the IC50 was < 300 nM. Turning to `COc1ccc(CC(=O)O)cc1Oc1ccc(NC(=O)c2ccc(Cl)cc2)cc1CS(=O)(=O)c1ccccc1` [Compound 24, {3-[2-Benzenesulfonylmethyl-4-(4-chloro-benzoylamino)-phenoxy]-4-methoxy-phenyl}-acetic acid], the IC50 is < 300 nM. For `CCNC(=O)c1ccc(Oc2cc(CC(=O)O)ccc2OC)c(CSC(C)C)c1` [Compound 25, [3-(4-Ethylcarbamoyl-2-isopropylsulfanylmethyl-phenoxy)-4-methoxy-phenyl]-acetic acid], the IC50 was < 300 nM.

For `COc1ccc(CC(=O)O)cc1Oc1ccc(C(=O)NCc2ccc(Cl)cc2)cc1CSC(C)C` [Compound 26, {3-[4-(4-Chloro-benzylcarbamoyl)-2-isopropylsulfanylmethyl-phenoxy]-4-methoxy-phenyl}-acetic acid], the IC50 was < 300 nM. In the case of `COc1ccc(CC(=O)O)cc1Oc1ccc(C(=O)NCCc2ccc(F)cc2)cc1CSC(C)C` [Compound 27, (3-{4-[2-(4-Fluoro-phenyl)-ethylcarbamoyl]-2-isopropylsulfanylmethyl-phenoxy}-4-methoxy-phenyl)-acetic acid], the IC50 is < 300 nM. On to `CC(C)(C)C(=O)Nc1ccc(Oc2cc(Cl)cc(CC(=O)O)c2)c(CSCC(F)(F)F)c1` [Compound 28, {3-Chloro-5-[4-(2,2-dimethyl-propionylamino)-2-(2,2,2-trifluoro-ethylsulfanylmethyl)-phenoxy]-phenyl}-acetic acid], for which the IC50 is < 300 nM. In the case of `CC(C)(C)C(=O)Nc1ccc(Oc2cc(Cl)cc(CC(=O)O)c2)c(CS(=O)(=O)CC(F)(F)F)c1` [Compound 29, {3-Chloro-5-[4-(2,2-dimethyl-propionylamino)-2-(trifluoro-ethanesulfonylmethyl)-phenoxy]-phenyl}-acetic acid], the IC50 is < 300 nM. For `CC(C)S(=O)(=O)Cc1cc(NC(=O)C(C)(C)C)ccc1Oc1cc(Cl)cc(CC(=O)O)c1` [Compound 31, {3-Chloro-5-[4-(2,2-dimethyl-propionylamino)-2-(propane-2-sulfonylmethyl)-phenoxy]-phenyl}-acetic acid], the IC50 was < 300 nM. Regarding `CC(C)(C)C(=O)Nc1ccc(Oc2cc(CC(=O)O)cc(C(F)(F)F)c2)c(CS(=O)(=O)CC(F)(F)F)c1` [Compound 33, {3-[4-(2,2-Dimethyl-propionylamino)-2-(trifluoro-ethanesulfonylmethyl)-phenoxy]-5-trifluoromethyl-phenyl}-acetic acid], the IC50 was < 300 nM.

On to `COc1ccc(CC(=O)O)cc1Oc1ccc(N(C)C(=O)C(C)(C)C)cc1CSCC(F)(F)F` [Compound 34, {3-[4-[(2,2-Dimethyl-propionyl)-methyl-amino]-2-(2,2,2-trifluoro-ethylsulfanylmethyl)-phenoxy]-4-methoxy-phenyl}-acetic acid], for which the IC50 was < 300 nM. With `COc1ccc(CC(=O)O)cc1Oc1ccc(NC(=O)C2CC2)cc1CSC(C)(C)C` [Compound 35, {3-[2-tert-butylsulfanylmethyl-4-(cyclopropanecarbonyl-amino)-phenoxy]-4-methoxy-phenyl}-acetic acid], the IC50 is < 300 nM. `COc1ccc(CC(=O)O)cc1Oc1ccc(NC(=O)C(C)C)cc1CSC(C)(C)C` [Compound 36, [3-(2-tert-Butylsulfanylmethyl-4-isobutyrylamino-phenoxy)-4-methoxy-phenyl]-acetic acid]: the IC50 is < 300 nM.

These data come from patent US20110144160A1, “Antagonists of Prostaglandin D2 Receptors” (Amira Pharmaceuticals, Inc., priority 2008, published 2011).
